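1) Cells in 96-well plates. 2) Compound, 48 h, 5 concentrations. 3) Linear interpolation between surrounding doses. 4) Unreached endpoint = highest concentration. GI50 is the concentration that inhibits growth by half. At the TGI there is no net growth.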 Where a SMILES comes first, the peptide text is derived from it. The star is where a group is joined. Boc = CC(C)(C)OC(=O)*; Bz = O=C(c1ccccc1)*
Key:
Experiment in all cases: DTP human tumour cell line panel, 48 h
786-0 renal = test system: 786-0 renal
A498 renal = test system: A498 renal
BT-549 breast = test system: BT-549 breast
HCT-116 colon = test system: HCT-116 colon
HT29 colon = test system: HT29 colon
MCF7 breast = test system: MCF7 breast
NCI-H522 lung = test system: NCI-H522 lung
PC-3 prostate = test system: PC-3 prostate
RPMI-8226 leukemia = test system: RPMI-8226 leukemia
SN12C renal = test system: SN12C renal

Row | Compound | TGI (786-0 renal) [µM] | TGI (A498 renal) [µM] | TGI (BT-549 breast) [µM] | TGI (HCT-116 colon) [µM] | TGI (HT29 colon) [µM] | TGI (MCF7 breast) [µM] | TGI (NCI-H522 lung) [µM] | TGI (PC-3 prostate) [µM] | TGI (RPMI-8226 leukemia) [µM] | TGI (SN12C renal) [µM] | GI50 (A498 renal) [µM] | GI50 (MCF7 breast) [µM] | GI50 (NCI-H522 lung) [µM]
1 | CC(NC(=O)C(Cc1ccc(OC(=O)c2ccccc2)cc1)NC(=O)OC(C)(C)C)C(=O)NC(Cc1ccccc1)C(=O)NCC(N)=O (stereo not drawn) (Boc-Y(Bz)AFG-NH2; configuration not given here) | 43.5 | 41.9 | 37.4 | 91.6 | 34.4 | 40.8 | 42.6 | 37.3 | 59.7 | 42 |  |  | 
2 | COc1cc(Cc2cc3c(c(C(=O)O)c2Br)OCO3)cc(OC)c1OC | > 100 | > 100 | > 100 | > 100 | > 100 | > 100 |  | > 100 |  | > 100 |  |  | 
3 | COc1ccc(C2=CC(c3ccccc3)n3nnnc3N2)cc1 (stereo not drawn) | > 100 |  |  | > 100 | > 100 | > 100 | > 100 | > 100 | > 100 | > 100 |  |  | 
4 | CC1(C)[C@H](C(=O)O)N2C(=O)[C@@H](NS(=O)(=O)c3ccc([N+](=O)[O-])cc3)[C@H]2S1(=O)=O | > 100 | > 100 | > 100 | > 100 | > 100 | > 100 | > 100 | > 100 |  | > 100 |  |  | 
5 | CCc1ccc(N=Cc2cc(OC)c(OC)c(OC)c2)cc1 | > 100 | > 100 |  | > 100 | > 100 |  | > 100 |  | 47.2 | > 100 |  |  | 
6 | COc1ccccc1/C=C/C1=NN(c2cccc(S(=O)(=O)O)c2)C2(C1)SCC(=O)N2c1nc2ccccc2s1 (stereo not drawn) | > 100 | > 100 | > 100 | > 100 | > 100 | > 100 | > 100 | > 100 | 65.4 | > 100 |  |  | 
7 | O=C(O)c1ccccc1NC(c1ccccc1)c1ccc2cccnc2c1O (stereo not drawn) | 20.1 | > 100 | 45.1 | > 64.2 | > 100 | > 62.4 | 23.3 | > 88.8 | 16.9 | > 51.4 |  |  | 
8 | COc1cc2c[n+](C)c3c4cc(OC)c(OC)cc4c(OC)cc3c2cc1OC | > 74.6 | > 100 | 57 | > 43.6 | > 46.7 | > 100 | 2.03 | 98.9 | > 100 |  |  |  | 
9 | COc1cc(C2SC(N)=Nc3c2c(C)nn3C(=O)c2ccccc2O)cc(OC)c1OC (stereo not drawn) | > 10 | > 10 | > 10 | > 10 | > 10 | > 10 |  | > 10 | > 10 | > 10 |  |  | 
10 | COc1cc(C=O)ccc1Oc1nnnn1-c1ccccc1 | > 100 |  | > 100 | > 100 | > 100 |  | > 100 | > 100 | 98.2 | > 100 |  |  | 
11 | C=CCOC(=O)N1[C@H]2C#C/C=C\C#C[C@]3(O)C(=O)C[C@H](C)[C@]24O[C@]43C2=CC(=O)C=CC21OC (stereo partly drawn) | 38.7 | 38 |  | 44.6 | 75.2 | > 100 | 48.5 | > 100 | 81.5 | 67.4 |  |  | 
12 | CC(=O)Nc1ccc(Nc2cc(=O)[nH]c(=O)[nH]2)cc1 | > 100 | > 100 | > 100 | > 100 | > 100 | > 100 |  | > 100 | > 100 | > 100 |  |  | 
13 | CCOC(=O)c1ccc(Nc2cnc3cc(C(F)(F)F)ccc3n2)cc1 | > 100 | > 100 | > 100 | > 100 | > 100 |  | > 100 | > 100 | > 100 | > 100 |  |  | 
14 | CC1(C)CCC[C@@]2(C)C1CCC1(C)C(CCc3ccoc3)/C(=C/OS(=O)(=O)O)CCC12 (stereo partly drawn) (tested in a mixture with another compound) | > 100 | > 100 |  | 38.9 | > 100 |  |  |  | > 100 | > 100 |  |  | 
15 | CC(=O)OC1C(C)OC(Oc2c(C)c3c4c(c2O)[C@@H](C)CC[C@@H]4[C@@H](C)C[C@H]3C=C(C)C)C(O)C1O (stereo partly drawn) |  | 14.7 |  |  |  | > 100 | > 100 |  |  |  | 4.43 | 5.81 | 49.7
16 | CCOC(=O)c1c2c3c(cccc3[nH]c1=O)Sc1ncccc1-2 | > 100 |  | > 100 | > 100 | 94.9 | > 100 | 83.8 | 74.6 | 38.4 | > 100 |  |  | 
17 | CC(=O)OC12/C(=N/O)CCCCCC1c1ccccc12 (stereo not drawn) | > 100 |  |  | > 100 | > 100 |  | 98.9 |  | > 100 | > 100 |  |  | 
18 | COc1ccc2nc3cc(Cl)ccc3c(NCCCN(Cc3cc(OC)c(OC)c(OC)c3)Cc3cc(OC)c(OC)c(OC)c3)c2c1 | 32.1 |  | 28 | 1.7 | 16.6 | 30.4 | 25.4 | 30.6 | 32 | 41 |  |  | 
19 | Cc1ccc(S(=O)(=O)c2c(N)c3nc4ccccc4n3c3nc4ccccc4nc23)cc1 | > 100 |  |  | > 100 | > 100 |  | > 100 |  | > 100 | > 100 |  |  | 
20 | Fc1ccc2[nH]cc(-c3nc(-c4c[nH]c5ncccc45)cs3)c2c1 |  | > 100 |  |  |  | > 100 |  |  |  |  | 2.07 | 3.04 | 
21 | OCC1OC(n2nc(-c3ccccc3)nc2-c2cnccn2)C(O)C(O)C1O (stereo not drawn) | > 100 |  | > 100 | > 100 | > 100 | > 100 | > 100 | > 100 | > 100 | > 100 |  |  | 
22 | Nc1ccc(S(=O)(=O)Nc2nnc(S(N)(=O)=O)s2)cc1 | > 100 | > 100 | > 100 | > 100 | > 100 | > 100 | > 100 |  | > 100 |  |  |  | 
